Measurements from US20050261260A1, “Combination of a CDK inhibitor and mitoxantrone” (Cyclacel Limited, priority 2002, published 2005).
≈ marks a conversion by molar mass, not a printed value. Where “and” joins values, the source holds several entries; their conditions need not be identical. Equal values may be shown once. Read-outs that look alike come from different tables or passages of the source.

Experiments:
[1] = system: prostate tumor cells (PC-3); assay: cells; settings: Homo sapiens, 24 h, read-out: IC50 (concentration listed as 100 % IC50), PC-3
[2] = system: prostate tumor cells (PC-3)
[3] = concurrent 24 h exposure, % IC50 0/100: roscovitine 0, mitox. 12.50 ng/ml
[4] = mitoxantrone 24 h then roscovitine 24 h, % IC50 0/100: roscovitine 0, mitox. 15.00 ng/ml
[5] = roscovitine 24 h then mitoxantrone 24 h, % IC50 0/100: roscovitine 0, mitox. 10.00 ng/ml
[6] = mitoxantrone 24 h then roscovitine 24 h, % IC50 100/0: roscovitine 30.00 ug/ml, mitox. 0

SMILES	IC50 ([1]; Table 3, roscovitine 24 h then mitoxantrone 24 h) [µg/mL]	IC50 ([1]; Table 5, mitoxantrone 24 h then roscovitine 24 h) [µg/mL]	IC50 ([1]; Table 7, concurrent 24 h exposure) [µg/mL]	% Abs [2, 3]	% Response [2, 3] [%]	Mean (absorbance) [2, 3]	Well 1-3 (absorbance) [2, 3]	% Abs [2, 4] [%]	% Response [2, 4] [%]	Mean (absorbance) [2, 4]	Well 1-3 (absorbance) [2, 4]	% Abs [2, 5] [%]	% Response [2, 5] [%]	Mean (absorbance) [2, 5]	Well 1-3 (absorbance) [2, 5]	% Abs [2, 6] [%]	% Response [2, 6] [%]	Mean (absorbance) [2, 6]	Well 1-3 (absorbance) [2, 6]
O=C1c2c(O)ccc(O)c2C(=O)c2c(NCCNCCO)ccc(NCCNCCO)c21 [Mitoxantrone, 1,4-dihydroxy-5,8-bis[{2-[(2-hydroxyethyl)amino]ethyl}amino]-9,10-anthracendione]	0.01 (≈ 0.0225 µM)	0.015 (≈ 0.0337 µM)	0.0125 (≈ 0.0281 µM)	51.8% and 54.7%	45.3	0.418	0.415 and 0.424 and 0.414	47.0	53.0	0.367	0.373 and 0.371 and 0.358	62.7	37.3	0.501	0.532 and 0.487 and 0.483	–	–	–	–
CC[C@H](CO)Nc1nc(NCc2ccccc2)c2ncn(C(C)C)c2n1 [Roscovitine, 6-benzylamino-2-[(R)-1-ethyl-2-hydroxyethylamino]-9-isopropylpurine]	–	–	–	–	–	–	–	–	–	–	–	–	–	–	–	21.9	78.1	0.171	0.165 and 0.162 and 0.186
